Experimental data published in patent US20170027896A1, “METHODS AND COMPOSITIONS FOR THE TREATMENT OF VASCULAR MALFORMATION” (IFOM - FONDAZIONE ISTITUTO FIRC DI ONCOLOGIA MOLECOLARE, priority 2014, published 2017).
“Also recorded” adds a separate entry of the source. Read-outs that look alike come from different tables or passages of the source.

Experiments:
[1] = test system: cavernoma lesions in the brain of CCM1-ECKO mice; test: Cavernoma lesions in the brain of CCM1-ECKO mice; format: in vivo, mouse
From the text: (§1) CCM1-ECKO and CCM2-ECKO have been obtained from CCM1-flox/flox and CCM2-flox/flox mice as described in details above for CCM3-ECKO mice, see also Maddaluno et al, 2013 and Boulday et al, 2011.

[2] = test system: CCM1 KO endothelial cells; test: Endothelial cell-to-cell contacts in CCM1 KO endothelial cells in culture; format: cell-based, mouse
[3] = test system: CCM1 KO endothelial cells; test: Expression of EndMT markers in CCM1 KO endothelial cells in culture; format: cell-based, mouse
Method: as §1
(§2) RNA extraction was performed with RNeasy kits (74106; […]). The RNA (1 μg) was reverse transcribed with random hexamers (High Capacity cDNA Archive kits; Applied Biosystems). The cDNA was amplified with TaqMan gene expression assays (Applied Biosystems) using a 7900 HT thermocycler (ABI/Prism). For each sample, the expression levels were determined with the comparative threshold cycle (Ct) method, and normalized to the housekeeping genes encoding 18S and glyceraldehyde-3-phosphate dehydrogenase (GAPDH). For amplification, the following probes (Applied Biosystems) that have been validated to recognize the mouse transcripts in rtPCR were used: Axin2, Nkd1, Lef1, ccnd1, cMyc-Klf4, Ly6a, S100a4, Id1, Cdh2, Acta2, CD44. The probes to identify the CCM3 mRNA transcript were custom designed, as: forward, […] (SEQ ID No. 12); reverse, GCTCTGGCCGCTCAATCA (SEQ ID No. 13); reporter sequence, […] (SEQ ID No. 14).

[4] = test system: CCM3-knockout endothelial cell line; test: Immunostaining of CCM3-knockout endothelial cell line; format: cell-based, mouse; details: 48 h
Method: (§3) In some experiments, endothelial cell lines from the lungs of CCM3-flox/flox mice (8-10 weeks old) were immortalized in culture through retroviral expression of polyoma middle T gene^60. […] These cells were then maintained in culture for up to 25 passages without detectable changes in the effects of this CCM3 ablation.
(§4) Drugs were added to confluent cells for 48 h before the indicated assays. The final concentrations used were: […] (all from Sigma-Aldrich). As all of these were dissolved in DMSO, control treatment (vehicle) was 0.1% DMSO final concentration, as for drug treatment.
Cells cultured in vitro were fixed and stained as described previously^46.
(§5) The following antibodies were used: anti-Pecam (hamster; MAB1398Z, Millipore); anti-b-galactosidase (chicken; ab9361, Abcam); anti-VE-cadherin (rat monoclonal; 550548, BD Biosciences); anti-VE-cadherin (goat; sc-6458, Santa Cruz); anti-active-b-catenin (mouse monoclonal clone 8E7) dephosphorylated on Ser37 and Thr41, Millipore); anti-total-b-catenin (mouse monoclonal; Cell Signaling); anti-S100a4 (rabbit; 07-2274, Millipore); anti-Klf4 (goat; AF3158, R&D); anti-CD44 (rat; 553131, BD Biosciences); anti-ID1 (rabbit; sc-488, Santa Cruz); anti-aSMA (mouse monoclonal; F3777, Sigma); anti-GFP (rabbit; A-6455, Invitrogen); anti-podocalyxin (goat; AF1556, R&D); anti-phospho-histone H3 (rabbit; ab51776, Millipore); anti-CCM3 (rabbit; Eurogentec); anti-p-Smad1 (rabbit; 9516, Cell Signaling); anti-endomucin (rabbit; sc-65495, Santa Cruz); anti-α-tubulin (mouse monoclonal; T9026, Sigma).

platelets = details: cited from earlier work
cyclooxygenase = details: reported; cited from earlier work
[5] = test system: vascular lesions in the brain of CCM3-ECKO mice; test: Assessment of lesion burden in brains of CCM3-ECKO mice; format: in vivo, mouse; details: CCM3-ECKO pups dpn 9; 30 mg/kg intragastrically daily; controls 166.8±22 (sulfide study), 153.5±28 (sulfone study)
From the text: (§6) The CCM3-flox/flox mice were generated at TaconicArtemis (Koeln, Germany). Two P-lox sequences were inserted that flank exons 4 and 5 of the murine CCM3 gene, to produce a loss-of-function mutation after excision by Ore recombinase. These CCM3-flox/flox mice were bred with Cdh5(PAC)-CreERT2 mice (Wang et al, 2010) for tamoxifen-inducible endothelial-cell-specific expression of Ore-recombinase and CCM3 gene recombination. The CCM3-flox/flox-Cdh5(PAC)-CreERT2 mice were further bred with BAT-gal mice (Maretto et al, 2003) to monitor the activation of b-catenin transcription signaling, and with Rosa 26-Enhanced […] Fluorescent Protein (EYFP) (Rosa26EYFP) mice (Srinivas et al, 2001) to monitor the expression of Ore-recombinase through the expression of EYFP. Tamoxifen (Sigma) was dissolved in corn oil and 10% ethanol (at 10 mg/ml), and then diluted 1:5 in corn oil before single intragastric administration to dpn 1-2 pups (35 mg/kg body weight), as described in^14. The control (wild-type) mice included CCM3-flox/flox-Cdh5(PAC)-CreERT2-BAT-gal mice treated with the vehicle used to dissolve the tamoxifen (corn oil plus 2% ethanol), and CCM3^+/+-Cdh5(PAC)-CreERT2-BAT-gal mice treated with tamoxifen.
(§7) Brains and eyes from mice pups were fixed in 3% paraformaldehyde immediately after dissection, and this fixing was continued overnight at 4° C. The retinas were dissected from the eyes just before staining as the whole mount. Fixed brains were embedded in 4% low-melting-point agarose and sectioned along the sagittal axis ([…]) using a vibratome (1000 Plus, The Vibratome Company, St. Louis, Mo., US).
For the classification and counting of lesions, entire brains from dpn 9 littermate pups were sectioned and immunostained for Pecam as described above and in the Methods. Sections were then examined under wide-field fluorescence microscopy (10× and 20×). Lesions were classified as described in^63 as mulberry (multiple cavernae, group of more than two contiguous cavernae), single caverna (single dilated vessel with maximal diameter accommodating more than 25 red blood cells), or telangiectases, tortuous small vessels with abnormally dilated lumen). The total numbers of lesions were calculated by summing all of the types of lesions.
As the sections were […], a correction was applied to the number of mulberry lesions, which can span two sections. Therefore, the number of mulberry lesions was divided by […]. The lesions were counted and classified independently by two observers who were blinded to the treatments.
The maximal diameter of the mulberry lesions and single cavernae was used for statistical comparison.

[6] = test system: b-catenin transcription activity in brain endothelial cells of CCM3-ECKO mice; test: Immunostaining of brain sections of CCM3-ECKO mice (b-gal reporter, progenitor/EndMT markers, VE-cadherin); format: in vivo, mouse; details: CCM3-ECKO pups, dpn 9
From the text: as §6, §7
Brain sections and retinas were stained as floating samples in 12-well and 96-well plates, respectively. They were blocked overnight at 4° C. in 1% fish-skin gelatin with 0.5% Triton X100 and 5% donkey serum in phosphate-buffered saline (PBS) containing 0.01% thimerosal. The samples were incubated overnight at 4° C. with the primary antibodies diluted in 1% fish-skin gelatin with 0.25% Triton X100 in PBS containing 0.01% thimerosal. Following washing with 0.1% Triton X100 in PBS, the secondary antibodies were added for 4 h at room temperature in 1% fish-skin gelatin with 0.25% Triton X100 in PBS containing 0.01% thimerosal. The incubation with DAPI was in PBS for 4 h, which was followed by several washes in PBS, post-fixating with 3% paraformaldehyde for 5 min at room temperature, and further washes in PBS. The brain sections were mounted in Vectashield with DAPI, and the coverslips fixed with nail varnish; the retinas were mounted in Prolong gold with DAPI.
as §5

[7] = test system: CCM3-knockout endothelial cell line; test: rtPCR of b-catenin target gene and progenitor/EndMT markers in CCM3-knockout endothelial cell line; format: cell-based, mouse; details: 48 h; 135 mM sulindac sulfide, 125 mM sulindac sulfone, 200 mM silibinin, 250 mM salinomycin
Method: as §3, §4, §2

CCM3-ECKO mice = test: Bleeding and mortality in drug-treated CCM3-ECKO mice; details: mouse, in vivo
Method: Sulindac sulfide (Sigma) and sulindac sulfone (Sigma) were both dissolved in DMSO and further diluted 1:50 in corn oil. They were administered intragastrically, daily (30 mg/kg body weight), starting one day after the induction of recombination. The control mice were treated in parallel with vehicle only (corn oil plus 2% DMSO).

CC1=C(CC(=O)O)c2cc(F)ccc2/C1=C\c1ccc(S(C)(=O)=O)cc1 [sulindac sulfone, (Z)-5-Fluoro-2-methyl-1-[4-(methylsulfonyl)benzylidene]indene-3-acetic acid]
formation of cavernoma lesions in the brain [1]: inhibits | organization of endothelial cell-to-cell contacts [2]: induces re-organization | expression of EndMT markers [3]: inhibits | expression of EndMT markers ([3]; listed as exisulind): inhibition | nuclear accumulation of active b-catenin / distribution to adherens junctions [4]: inhibited; also recorded: reduced | overexpression of progenitor/EndMT marker proteins (Klf4, S100a4, Id1, CD44) [4]: strongly reduced; also recorded: inhibited | anti-platelet activity (platelets): lacks anti-platelet activity | anti-cyclooxygenase activity (cyclooxygenase): devoid of anti-cyclooxygenase activity | mean number (±SD) of vascular lesions per brain [5]: 68.6±10 | VE-cadherin localization at endothelial cell-cell junctions in brain vessels [6]: restored its localization to cell-cell junctions | expression of b-catenin target genes / progenitor and EndMT markers (Klf4, S100a4, Id1) in brain endothelium ([6]; immunostaining): reduced this nuclear reactivity; also recorded: inhibited | inhibition of transcription of Axin2, Klf4 and S100a4 (rtPCR) [7]: greatest inhibition; also recorded: most effective | bleeding from vascular lesions or mortality versus vehicle-treated mice (CCM3-ECKO mice): did not observe either increased bleeding from vascular lesions or mortality
